This is an account of results in a melting point compilation (Tetko et al.; mined from patent text by program, amines drawn as free bases though some values may be those of a salt).

Some results are limits rather than exact numbers.

As for `COc1cc2cc(CO)c(CO)c(-c3ccnc(-n4c(=O)ccc5ccccc54)c3)c2cc1OC`, the melting point (usually the temperature of the solid-liquid transition) is above 230 °C.

Turning to `CC(=O)Nc1cc(N(CCO)CCO)ccc1N=Nc1snc(C)c1C#N`, the melting point is 188 to 189 °C.

Turning to `O=c1oc2ccccc2c(O)c1CCCCC1CCCCC1`, the melting point lay in the range of 160 to 161 °C.

As for `CCS(=O)(=O)N1C[C@H](C)N(C(=O)[C@@](C)(O)C(F)(F)F)C[C@H]1C`, the melting point was 142 to 144 °C.

The molecule `CCN(CC)C(=O)c1cc(C(C)(C)C)c(O)c(C(C)(C)C)c1` had a melting point of 136 to 138 °C.

`CCOC(=O)c1cc2ccc3cc4ccccc4cc3c2n1C` had a melting point of 165 to 166 °C.

The molecule `N#Cc1c(N2CCN(C(=O)c3cccs3)CC2)c2sccc2[nH]c1=O` came in with a melting point of 293 °C.

Regarding `CCCNc1c2c(nc3ccccc13)CCCC2=O`, the melting point was 145 °C.

Molecule `CC(C)Oc1ccc(-c2[nH]c(-c3ccc([N+](=O)[O-])cc3)nc2C(=O)Nc2nccs2)cc1` showed a melting point of 267 to 270 °C.

As to `CCCCCN(CCC12CC3CC(CC(C3)C1)C2)C(=O)NCCc1ccc(O)cc1`, the melting point is 96.3 to 99.4 °C.

`O=C(Nc1cccnc1)N1CCN(c2nc(-c3cccc(Cl)c3Cl)cs2)CC1` yielded a melting point of 132 to 133 °C.

In turn, `O=C1c2ccccc2C(=O)N1CC(=O)N1c2ccccc2N(Cc2ccc(Cl)cc2)C(=O)[C@H]2CCC[C@H]21` (relative stereo) came in with a melting point of 205 to 206 °C.

Molecule `O=C(C(Cl)Cl)N1CCSC12CCCCC2` returned a melting point of 149 to 151 °C.

`O=C(NCNc1c(Nc2cccnc2)c(=O)c1=O)c1ccc(Cl)cc1` returned a melting point of 174 to 176 °C.

Turning to `CC(C)n1nc(-c2ccc(N)nc2-c2ccccc2)ccc1=O`, the melting point fell in the range of 167 to 171 °C.

With `CN(C)C(N)=Nc1ccccc1N1CCOCC1`, the melting point lay within 143 to 144 °C.

The molecule `CON=C1C=C(NC(=O)N(N)CCO)C(Cl)=C(C)C1Cl` (configuration not stated) came in with a melting point of 152 to 156 °C.

Molecule `O=C(N[C@H](Cc1cccc(OC(F)(F)C(F)F)c1)[C@@H](O)c1ccc(F)nc1)c1ccc(F)c2ccccc12` (racemic) returned a melting point of 148 to 149 °C.

As to `COc1cc2c(cc1OCc1ccccc1)CCN(Cc1cc(F)cc(F)c1)C2`, the melting point was in the range of 116 to 117 °C.

Take `COc1cc(C(=O)N2CCCCc3cc(Cl)ccc32)ccc1NC(=O)N(C)C`: the melting point was 230 to 232 °C.

`Cn1c(=O)c2c(N)ccnc2n(C)c1=O` had a melting point of 233 to 235 °C.

In turn, `NC(=O)c1[nH]c2ccccc2c1-c1ccc(NC(=O)Nc2ccc(C(F)(F)F)c(Cl)c2)cc1` yielded a melting point of 168 to 170 °C.

In turn, `CSc1ccc(O)nn1` displayed a melting point of 119 °C.

Take `COC(=O)C(=NO)c1cccc(Oc2ccccc2)c1`: the melting point is 122 to 123 °C.

`CCN1C(=O)C(C)(C)C(=O)N(C)c2cc(CN(CCn3ccc4oc(C)cc4c3=O)Cc3ccnn3C)ccc21`: the melting point fell in the range of 128 to 131 °C.

Turning to `Cn1nc(COc2cccc3c2CN(C2CCC(=O)NC2=O)C3=O)cc1CN1CCOCC1` (configuration not stated), the melting point fell in the range of 125 to 127 °C.

As to `O=C(Cn1c(-c2ccc(Cl)cc2)nc2cccnc21)NC1CCCC1`, the melting point was 260 to 261 °C.

The molecule `CS(=O)(=O)Nc1cc(C(=O)O)c2c(c1)C(C(=O)O)CCN2` (configuration not stated) displayed a melting point of 188 to 190 °C.

`COc1cc(OC)c2c(=O)[nH]c(-c3cccc(-c4ccc(S(C)=O)cc4)n3)nc2c1` (configuration not stated) came in with a melting point of 281 to 282 °C.

`Cc1cnc2ccnn2c1-c1cccc(C(F)(F)F)c1`: the melting point was in the range of 168 to 169 °C.

Regarding `COc1nc2ccccc2c(-c2ccccc2)c1C(=O)N(C)Cc1cc(C(F)(F)F)cc(C(F)(F)F)c1`, the melting point lay in the range of 146 to 147 °C.

In turn, `CC(=O)NN1C(=O)c2cc3ccc4c(c3c(-c3ccc5c(c3)OCO5)c2C1=O)OCO4` registered a melting point of 281 to 283 °C.

Consider `COc1ncccc1-c1cncc(OC2SCC(O)C(O)C2O)c1` (configuration not stated), for which the melting point is 209 °C.

As to `CCCCc1nc2cc(C)c(C)cc2n1Cc1ccc(C(=O)O)cc1`, the melting point amounted to 220 °C.

`CON=C1CN(c2c(F)cc3c(=O)c(C(=O)O)cn(C4CC4)c3c2Cl)CC12CN(C(=O)OC(C)(C)C)C2` came in with a melting point of 203 to 204 °C.

`Cn1cnc([N+](=O)[O-])c1NCCN1CCC(Nc2nc3cccnc3n2Cc2ccc(F)cc2)CC1` showed a melting point of 199 °C.

For `FC(F)(F)c1ccc(-c2cc(Oc3ccc4cccnc4c3)ncn2)c(OCCN2CCOCC2)c1`, the melting point was 132 to 133 °C.

The molecule `O=C(O)CN1CCCCC1` had a melting point of 185 to 187 °C.

In turn, `CCc1nnc(C2=C(OC(=O)c3ccccc3)c3ccccc3S(=O)(=O)N2C)o1` gave a melting point of 191 to 192 °C.

Regarding `CC(=O)NC(CCOC(C)=O)(CCOC(C)=O)CCc1ccccc1`, the melting point is 73 to 74 °C.

The molecule `CCOC(=O)C1=C(C)Nc2ncnc(OC(C)C)c2C1c1ccccc1` (configuration not stated) yielded a melting point of 201 to 202 °C.

Molecule `CCOCc1nc2c(N)nc3cc(-c4ccncc4)ccc3c2n1CC(C)(C)O` displayed a melting point of 220 to 221 °C.

Molecule `O=C(O)CCSC1c2ccccc2COc2ccc(OCc3ccc4ccc(OC(F)F)cc4n3)cc21` (configuration not stated) returned a melting point of 180 to 184 °C.

`CC1(C)CCCC[C@H]1[C@H](O)c1ccc(F)cc1`: the melting point is 105 to 108 °C.

In turn, `CCCc1c(C(=O)C(C)C)c2ccc(C(=O)OC)cc2n1Cc1ccc(Br)cc1F` displayed a melting point of 110 to 112 °C.

The molecule `Cc1nccn1Cc1ccc(NC(=O)C(F)(F)F)cc1C(F)(F)F` returned a melting point of 229 to 230 °C.

Regarding `COC(=O)CN1CCC(C(=O)Oc2ccc([N+](=O)[O-])cc2)CC1`, the melting point is 109 to 111 °C.

Turning to `Cn1nc(C(F)(F)F)cc1-c1ccc(F)cc1F`, the melting point was 37 to 38 °C.

For the molecule `CCOC(=O)CCC(=O)Nc1n[nH]c2cc(C(F)(F)F)ccc12`, the melting point came to 248 °C.

`Cc1cc(-c2cccc(NC(=O)C3CC3)c2)n2ncc(C(=O)c3cccs3)c2n1` registered a melting point of 184 to 186 °C.

Regarding `COc1cc(N2CCN([C@H]3CC[C@@H](c4cn(C)c5ccc(C#N)cc54)CC3)CC2)c2ncc(C)cc2c1`, the melting point lay in the range of 190 to 192 °C.

Regarding `CC#CCOc1ccc(S(=O)(=O)NC2(C(=O)NO)CCCCC2)cc1`, the melting point lay within 82 to 84 °C.

Consider `Nc1ccccc1NCCCCCCCCCCCCNc1ccccc1N`, for which the melting point was in the range of 85 to 88 °C.

Molecule `O=c1c(-c2cccc(F)c2)coc2c(O)c(O)ccc12` yielded a melting point of 230 °C.

Molecule `Cc1cc(C)c([N+](=O)[O-])cc1-n1c(C)cc(C)c(C#N)c1=O` showed a melting point of 262 to 263 °C.

`CCOC(=O)c1ccc(CCCOCCCCCCNCC(O)c2cc(Cl)c(N)c(Cl)c2)cc1` (configuration not stated) registered a melting point of 66 to 68 °C.

Consider `O=C(O)CC1c2ccccc2CCN1S(=O)(=O)c1ccc2ccccc2c1` (configuration not stated), for which the melting point was determined as 132 °C.

As for `CCCNC(=O)CCCCCn1cnc2c(N)nc3ccccc3c21`, the melting point is 128 to 130 °C.

The molecule `COC(=O)c1nc(-c2ccc(Cl)cc2F)cc(N)c1Br` gave a melting point of 148 to 149 °C.

`CCOC(=O)CCCOc1cccc(C=Cc2ccc3ccc(Br)cc3n2)c1` gave a melting point of 61 to 63 °C.

`O=Cc1cc(S(=O)(=O)n2ccc3ccccc32)ccc1Br` yielded a melting point of 106 to 108 °C.

Molecule `COCCn1nc(-c2ccc(C(C)(C)C)cc2)cc1C(=O)NCc1ccc(OC(C)(C)C(=O)O)c(C)c1` had a melting point of 112 °C.

Molecule `CC(C)c1n[nH]c2c(Cl)nc(Cl)nc12` showed a melting point above 250 °C.

`Cc1ccc(C(=O)Nc2c[nH]nc2C(=O)NCCO)cn1` displayed a melting point of 233 to 235 °C.

`CN1CC[C@@H]2CC(=O)c3cc(-c4ccccc4)ccc3[C@@H]2C1` (relative stereo) had a melting point above 250 °C.

With `COC(=O)c1cc(CS(=O)c2ccccc2)cnc1C1=NC(C)(C(C)C)C(=O)N1` (configuration not stated), the melting point was 132 to 136 °C.

Consider `O=[N+]([O-])c1ccccc1Cc1ncc[nH]1`, for which the melting point is 155 to 157 °C.

In the case of `O=C1c2cccc3cc4ccccc4c(c23)C(=O)N1CCNCCCCCNCCN1C(=O)c2cccc3cc4ccccc4c(c23)C1=O`, the melting point turned out to be 122 °C.

Molecule `N#Cc1cc(NCc2ccncc2)n(-c2c(Cl)cc(C(F)(F)F)cc2Cl)n1` returned a melting point above 300 °C.

In the case of `COc1cc2nc(N3CCN(c4nc5cccccc-5n4)CC3)nc(N)c2cc1OC`, the melting point lay within 189 to 193 °C.

The molecule `Cn1c(Cl)nc2c3ncc(Cl)cc3ccc21` displayed a melting point of 211 to 213 °C.

Take `CN1C(=O)N(C)S(=O)(=O)N(c2ccc(Cl)cc2)C1=O`: the melting point was 82 to 84 °C.

`C#CCOc1ccc(CCNC(=O)C(O)Cc2ccc(C)cc2)cc1OC` (configuration not stated) showed a melting point of 85 °C.

With `Cc1ccnc(CN(C(=O)C(C)Cl)c2ccccc2)n1` (configuration not stated), the melting point is 110 °C.

For the molecule `COc1ccccc1C(=O)c1cccc(N)c1`, the melting point was determined as 81 °C.

Molecule `Cc1cc(N2CCN(c3c(C)c(C)c4c(c3C)CC(C)(C)O4)CC2)ccc1F` came in with a melting point of 143 to 145 °C.

`COC(=O)[C@H](CCCCNC(=O)c1csc(NC(=O)NCc2ccccc2)n1)NC(=O)OC(C)(C)C`: the melting point stood at 166 °C.

In turn, `CCOC(=O)c1ccc(NCc2cc3c(cc2O)CCCO3)cc1` displayed a melting point of 150 °C.

`NC(=O)N(O)CCNC(=O)c1ccc2ccccc2n1` came in with a melting point of 189 to 190 °C.

The molecule `CC(Cl)(Cl)C(NC(=O)c1ccc(Cl)cc1)NC(=NC#N)Nc1ccc(Cl)nc1` (configuration not stated) came in with a melting point of 199 to 200 °C.

Molecule `COc1ccc(-n2cc(C(=O)O)c(=O)c3cc(F)c(F)cc32)cc1` registered a melting point of 256 to 258 °C.

The molecule `c1cnc2ccc(Cn3cnc4ccc(-c5cn[nH]c5)nc43)cc2c1` displayed a melting point of 214 to 216 °C.

Molecule `COc1ccc(NC(=O)C2CCc3c(OCc4ccccc4)cccc32)c(OC)c1` (configuration not stated) registered a melting point of 130 °C.

As for `O=C(Nc1cccnc1Cl)c1ccccc1F`, the melting point stood at 122 °C.

Molecule `CSc1nc(Cl)c(Cl)nc1Cl` showed a melting point of 45 to 47 °C.

With `COc1ccccc1N1CCN(CNC(=O)c2ccc(Cl)cc2)CC1`, the melting point is 145 to 147 °C.

Molecule `O=c1c(O)coc2ccccc12` registered a melting point of 178 to 179 °C.
